Test results published in publication PMC9804781, “Identification of a Novel Pseudo‐Natural Product Type IV IDO1 Inhibitor Chemotype” (Angewandte Chemie (International Ed. in English), 2022).

How the values were obtained:
IDO1 promoter = IDO1 promoter reporter gene assay in HEK293T cells; format: cell-based; conditions: IFN-γ, 48 h
Protocol: GraphPad Prism 9.0 (GraphPad Software, Inc, US) to generate dose-response curves and obtain […]
IDO1 promoter reporter gene assay
HEK293T cells (25,000 cells/well) were reverse-transfected with pXPG-IDO1[16] (4 µg/96-well plate, kindly provided by Gina M. Doody, Leeds, UK) and pRL-TK (300 ng/96-well plate, Promega, US) using Lipofectamine™ 2000 (Invitrogen, USA) pri or to incubation for 24 h. Afterwards, cells were treated with 50 ng/mL IFN-γ and the compounds for 48 h. Luminescence generated by the Fluc reporter and the control reporter Rluc was measured using the Dual-Glo ® Luciferase Assay System (Promega, US) on the Spark® Multimode Microplate Reader (Tecan, AT). To determine the IDO1 promoter activity, Fluc signals were divided by Rluc signals and normalized to the values of the DMSO control. Data analysis was performed using a non-linear regression curve fit and […]
BxPC-3 cells (30,000 cells/well) were seeded in 96-well plates in Trp-free RPMI 1640 medium and incubated for 48 h prior addition of 50 ng/mL IFN-γ. […]
The supernatant was transferred to a new plate, trichloroacetic acid was added to a final concentration of 7% (v/v) and plates were incubated for 15 min at room temperature. Samples were centrifuged for 10 min at 1800 x g and L-Trp was quantified by HPLC-MS/MS using the LTQ Velos Pro and Dionex HPLC (Thermo Fisher Scientific, US). […]

rhIDO1 (holo-IDO1) = molecular target: T1, rhIDO1 (holo-IDO1) (Homo sapiens, UniProt P14902); assay: UV/Vis spectrophotometry of the Soret peak (heme loss); format: binding; conditions: holo-IDO1, 2 h at 37 °C
T1 construct: His; made in house; host or cells: E. coli
Protocol: using the ChemiDoc MP Imaging System (Bio-Rad Laboratories, DE). IDO1 protein levels were normalized to the levels of reference protein vinculin.
BxPC-3 cells (10,000 cells/well) were seeded in 96-well plates and incubated for 24 h prior to addition of 50 ng/mL IFN-γ and compounds at indicated concentrations for 48 h. Cells were fixed with 4% paraformaldehyde for 20 min at room temperature followed by permeabilization with 0.5% Triton X-100 for 15 min at room temperature. Afterwards, unspecific binding sites were blocked with 5% non-fat milk in PBS with 0.1% (v/v) Tween-20 (PBS-T) for 60 min at room temperature followed by overnight incubation at 4°C with the primary antibodies. […]
11 µM rhIDO1 was incubated with compounds at indicated concentrations for 60 min at 37°C in 50 mM potassium phosphate buffer (16.9 mM K2HPO4, 33.1 mM, KH2PO4, pH 6.5). The thermal protein stability from 20°C to 90°C (1°C/min) was measured by means of the intrinsic tryptophan/tyrosine fluorescence using the Prometheus™ NT.48 (NanoTemper® Technologies, DE). Melting scans, first derivatives of melting scans and melting temperatures were analyzed using PR.ThermControl software (NanoTemper® Technologies, DE). […]
transparent microplates (UV-STAR®, Greiner AG, AT). Subsequently, absorbance spectra from 250 nm to 550 nm were recorded on the Spark® Multimode Microplate Reader (Tecan, AT). […]

T1 sequence (P14902 whole entry): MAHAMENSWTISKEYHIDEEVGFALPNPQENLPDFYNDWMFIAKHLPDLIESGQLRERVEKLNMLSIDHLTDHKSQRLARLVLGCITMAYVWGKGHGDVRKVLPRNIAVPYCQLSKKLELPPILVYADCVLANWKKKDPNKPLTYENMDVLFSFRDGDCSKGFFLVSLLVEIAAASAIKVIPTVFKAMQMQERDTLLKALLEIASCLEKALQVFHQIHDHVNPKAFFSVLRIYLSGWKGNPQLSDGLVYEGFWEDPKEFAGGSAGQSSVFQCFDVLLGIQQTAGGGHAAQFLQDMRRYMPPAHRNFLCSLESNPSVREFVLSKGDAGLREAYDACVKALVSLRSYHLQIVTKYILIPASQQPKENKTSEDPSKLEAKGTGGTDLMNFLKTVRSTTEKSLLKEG

SMILES: CCOC(=O)C1=CC[C@](C(=O)OC)(c2cc3ccccc3n2C)N(S(=O)(=O)c2ccc(C)cc2)[C@@H]1C(=O)OC(C)(C)C [Compound 3d]
- expression of the Fluc reporter under IDO1 promoter (IDO1 promoter): did not reduce the expression of the reporter
- effect on Soret peak at 404 nm (heme loss) (rhIDO1 (holo-IDO1)): reduced the Soret peak
